# From publication PMC8260228, “Two de novo GluN2B mutations affect multiple NMDAR-functions and instigate severe pediatric encephalopathy” (eLife, 2021)
# Like-named read-outs stand apart in the source and are kept apart here.
# Assays:
# [1] = molecular target: T1, hGluN1a + hGluN2Bwt (Homo sapiens, UniProt Q05586+Q13224); experiment: Apparent open probability: MK-801 block kinetics, TEVC in oocytes; format: cell-based; design: expressed in transfected cells; host or cells: Xenopus laevis oocytes injected with in vitro transcribed mRNA (pCI-Neo plasmids produced by the Traynelis lab); details: 1 μM MK-801 after 3 mM glutamate, 100 μM glycine
# T1 sequence (Q13224 27-1484, other chains not shown): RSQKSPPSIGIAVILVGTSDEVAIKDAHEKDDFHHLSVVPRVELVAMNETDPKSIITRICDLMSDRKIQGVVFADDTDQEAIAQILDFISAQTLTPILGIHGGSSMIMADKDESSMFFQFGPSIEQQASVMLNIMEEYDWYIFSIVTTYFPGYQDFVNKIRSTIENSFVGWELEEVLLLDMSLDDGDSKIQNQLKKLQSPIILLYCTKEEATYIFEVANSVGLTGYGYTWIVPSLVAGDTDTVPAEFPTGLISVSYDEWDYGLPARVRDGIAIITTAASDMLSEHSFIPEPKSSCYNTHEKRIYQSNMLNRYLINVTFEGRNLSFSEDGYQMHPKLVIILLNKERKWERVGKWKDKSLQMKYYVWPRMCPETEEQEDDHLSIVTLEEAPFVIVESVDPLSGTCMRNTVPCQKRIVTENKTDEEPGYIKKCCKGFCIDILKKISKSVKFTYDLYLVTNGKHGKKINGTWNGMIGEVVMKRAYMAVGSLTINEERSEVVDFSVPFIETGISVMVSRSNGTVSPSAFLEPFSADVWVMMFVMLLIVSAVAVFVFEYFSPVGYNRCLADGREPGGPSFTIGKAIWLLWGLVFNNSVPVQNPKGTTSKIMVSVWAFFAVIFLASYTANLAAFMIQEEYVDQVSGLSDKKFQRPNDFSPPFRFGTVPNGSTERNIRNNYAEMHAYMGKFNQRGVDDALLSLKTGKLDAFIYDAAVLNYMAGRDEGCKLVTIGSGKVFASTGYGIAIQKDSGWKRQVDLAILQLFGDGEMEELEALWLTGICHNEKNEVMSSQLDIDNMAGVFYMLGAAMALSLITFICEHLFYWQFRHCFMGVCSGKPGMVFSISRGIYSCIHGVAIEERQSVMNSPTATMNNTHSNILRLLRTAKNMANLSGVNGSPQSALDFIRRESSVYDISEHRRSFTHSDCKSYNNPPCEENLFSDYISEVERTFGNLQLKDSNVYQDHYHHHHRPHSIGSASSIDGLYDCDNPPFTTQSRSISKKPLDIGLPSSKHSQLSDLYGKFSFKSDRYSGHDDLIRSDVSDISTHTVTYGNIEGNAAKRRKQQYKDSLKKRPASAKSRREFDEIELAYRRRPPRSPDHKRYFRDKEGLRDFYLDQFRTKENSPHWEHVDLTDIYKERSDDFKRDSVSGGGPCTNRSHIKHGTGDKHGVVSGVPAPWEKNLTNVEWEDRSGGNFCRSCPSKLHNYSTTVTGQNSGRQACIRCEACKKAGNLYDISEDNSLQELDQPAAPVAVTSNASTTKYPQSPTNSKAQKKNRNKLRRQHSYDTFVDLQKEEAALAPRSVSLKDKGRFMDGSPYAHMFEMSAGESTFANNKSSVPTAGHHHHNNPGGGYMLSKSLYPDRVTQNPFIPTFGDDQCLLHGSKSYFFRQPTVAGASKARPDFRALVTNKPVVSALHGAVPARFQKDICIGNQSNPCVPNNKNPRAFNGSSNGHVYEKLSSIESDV
# Procedure: MK-801 (activity-dependent pore blocker of GluNRs) was purchased from Alomone labs (cat.# M-230). One mM stock solutions were made by diluting lyophilized MK-801 in barth solution. […] Deactivation kinetics were fitted from which we extracted t10-90% or deactivation constant, τoff.
# (§1) Data were analyzed by Clampfit software (Molecular Devices, USA) and were fitted using Sygmaplot 11 (Systat software, inc) to Hill’s equation (Equation 1) from which we extracted EC50 values. […] IC50 values for Mg^+2 and proton inhibition were extrapolated by fitting the results to Hill’s equation (Equation 4). τoff values for apparent open probability were extrapolated by fitting the result to a mono-exponential function (Equation 5). t10-90% results were obtained by placing cursors at beginning and end of responses, then automatically assessed by the Clampfit software (under statistics, positive going). mEPSCs were detected off-line using pCLAMP 10’s template search. Briefly, 5–10 ‘minis’ were identified and selected by user, followed by an automated search. All automatically identified minis were validated by user.
# [2] = molecular target: T1, hGluN1a + hGluN2Bwt
# Procedure: With the intent to rescue (i.e. increase) current amplitudes, we turned our attention toward spermine— a naturally-occurring and highly specific GluN2B-subunit potentiator ([Mony et al., 2009]; [Mony et al., 2011]). […] To further address this issue we employed arcaine-sulfate (a competitive antagonist of the polyamine site [[Gomes et al., 2014]; [Araneda et al., 1999]; [Reynolds, 1990]]).
# Spermine was purchased from Sigma-Aldrich (Cat. #S3256). A total of 200 mM stock solutions were made by diluting powdered spermine in barth solution at different pHs (6.3 and 7.3). […] Arcaine sulfate was purchased from Alomone labs (Cat. # 14923-17-2). Ten mM solutions were made by diluting lyophilized Arcaine sulfate in barth solution at pH = 6.5.
# [3] = system: GluN2B-subunit; details: read-out: spermine reported EC50; ref Mony et al., 2011; cited from earlier work
# [4] = molecular target: T1, hGluN1a + hGluN2Bwt; experiment: Mg2+ dose-response (block), TEVC in Xenopus oocytes; format: cell-based; design: expressed in transfected cells; host or cells: Xenopus laevis oocytes injected with in vitro transcribed mRNA (pCI-Neo plasmids produced by the Traynelis lab); details: 5 mM glutamate, 100 μM glycine, −60 mV; read-out: Mg^+2 IC50 (−60 mV)
# [5] = molecular target: T1, hGluN1a + hGluN2Bwt; experiment: Glutamate dose-response, TEVC in Xenopus oocytes; format: cell-based; design: expressed in transfected cells; host or cells: Xenopus laevis oocytes injected with in vitro transcribed mRNA (pCI-Neo plasmids produced by the Traynelis lab)
# Source text: All Experiments were approved by the Technion Institutional Animal Care and Use Committee (permit SB, no. IL-129-09-17). Xenopus laevis oocytes were harvested, prepared, and injected with mRNA as previously described ([Berlin et al., 2020]). Briefly, oocytes were obtained from anesthetized (by 0.4% tricaine solution) female frogs. Oocytes were extracted from ovaries, defolliculated by collagenase treatment in ND96 Ca^+2-free solution (in mM: 96 NaCl, 2 KCL, 1 MgCl2, 5 HEPES, pH 7.4) for about 45 min at RT. Cells were washed with ND96 Ca^+2 -free and transferred to enriched ND96 (NDE) consisting of ND96 supplemented with 1.8 mM CaCl2, 2.5 mM sodium pyruvate, 100 μg/ml streptomycin and 62.75 μg/ml penicillin. Stage V oocytes were manually isolated, incubated overnight at 18°C and injected with mRNA the next day.
# For mRNA preparation, DNA plasmids were linearized by restriction enzymes (NotI), followed by in vitro mRNA transcription using mMessage-mMachine T7 kit (Thermo Scientific, Cat.#AM1344), as previously described ([Berlin et al., 2010]). mRNA concentrations were determined using a spectrophotometer. […]
# Data were analyzed by Clampfit software (Molecular Devices, USA) and were fitted using Sygmaplot 11 (Systat software, inc) to Hill’s equation (Equation 1) from which we extracted EC50 values.
# [6] = system: GRIN2A mutation D731N; design: method as in Swanger et al., 2016; details: ref Swanger et al., 2016; cited from earlier work
# [7] = system: GluN2B-mutant; design: method as in Soto et al., 2019; details: ref Soto et al., 2019; cited from earlier work
# [8] = system: GluN2B-E413G; design: method as in Swanger et al., 2016; details: read-out: glutamate potency EC50; ref Swanger et al., 2016; cited from earlier work
# [9] = molecular target: T1, hGluN1a + hGluN2Bwt; experiment: Assessing potentiation by D-serine, TEVC in oocytes; details: 100 μM D-serine, 5 mM glutamate, 1 μM glycine
# [10] = system: GluN1; design: method as in Traynelis et al., 2010; details: ref Traynelis et al., 2010; cited from earlier work
# [11] = molecular target: T1, hGluN1a + hGluN2Bwt; details: read-out: Glycine EC50; 5 mM glutamate
# Procedure: Two electrode voltage clamp (TEVC) recordings were carried-out 24–72 hr following mRNA injections, as previously described ([Berlin et al., 2011]). Recordings were performed using commercial amplifier (Warner Instruments, USA) and Digitizer (Digidata-1550B; Molecular Devices, USA), controlled by pClamp10 software (Molecular Devices, USA). Electrodes consisted of pulled glass capillaries (by puller- Narishige, Japan) with chlorinated silver wire, filled with 3M KCl. Oocytes were clamped to −60 mV and perfused with nominally Mg^+2-free barth solution (in mM): 100 NaCl, 0.3 BaCl2, 5 HEPES, pH 7.3 (adjusted with NaOH).
# as §1, with “All automatically identified minis were validated by user.” left out
smiles,measurement,setting,value
C[C@]12N[C@H](Cc3ccccc31)c1ccccc12 [MK-801],10–90% inhibition rate,[1],8554 ± 827 ms; (24)
same,τoff,[1]; mono-exponential fit,4590 ± 603 ms; (24)
NCCCNCCCCNCCCN [spermine],potentiation by spermine,"[2]; 200 μM spermine, pH 6.3",~ 25 fold
same,potentiation by spermine,"[2]; 200 μM spermine, pH 7.3",~ 70%
same,current with spermine relative to basal glutamate current,"[2]; 200 μM spermine, pH 7.3, 5 mM glutamate, 100 μM glycine",172%
same,inhibition by higher spermine concentrations,[2]; pH 7.3,not observed
same,EC50,[3],200 µM
[Mg+2] [Mg^+2],IC50,[4],31 ± 3.7 µM
"N[C@@H](CCC(=O)O)C(=O)O [Glutamate, glutamate]",Imax Norm. to wt,"[5]; normalized maximal glutamate current, oocytes",1 ± 0.08; (22)
same,contribution to the total current by excess glutamate >100 μM,[5]; receptors saturated at 100 μM glutamate,< 15%
same,reduction in glutamate potency,[6],~ 6000 fold
same,reduction in EC50,[7],~ 7 fold
same,EC50,[8],79 ± 5.3 µM
N[C@H](CO)C(=O)O [D-serine],increase of the maximal current by D-serine,[9],~ 35%
same,EC50,[10],~0.7 µM
"NCC(=O)O [Glycine, glycine]",EC50,[11],0.23 ± 0.03 µM
